According to the NIST ThermoML archive (doi:10.1016/j.jct.2008.04.010):
Several values for one entry are separate records, joined by “and”; a condition that tells them apart may be missing. Equal values may be shown once. Numbers after ± are expanded uncertainties.

Legend:
[1] = molar enthalpy of vaporization or sublimation; conditions: 298.15 K; Liquid; Calvet microcalorimetry
[2] = Molar enthalpy of transition or fusion; conditions: Crystal; DSC
[3] = for vapor or sublimation pressure: Calculated from knudsen effusion weight loss; for Normal melting temperature: DTA

c1ccc(-c2cccc3ccccc23)cc1 [1-phenylnaphthalene]
Conditions | molar enthalpy [kcal/mol]
[1] | 19.4 ± 0.86

c1ccc(-c2cccc(-c3ccc4ccccc4c3)c2)cc1 [2-(biphen-3-yl)naphthalene]
Conditions | Molar enthalpy of transition or fusion [kcal/mol]
[2] | 4.42 ± 0.129

[3], Liquid
Conditions | vapor or sublimation pressure
381.08 K | 8.1e-05 ± 4e-06 kPa and 8.3e-05 ± 4e-06 kPa
385.17 K | 0.000117 ± 6e-06 kPa
389.15 K | 0.000174 ± 9e-06 kPa
389.17 K | 0.000177 ± 9e-06 kPa
393.18 K | 0.000216 ± 1.1e-05 kPa and 0.000218 ± 1.1e-05 kPa and 0.000223 ± 1.1e-05 kPa
397.15 K | 0.000323 ± 1.6e-05 kPa and 0.000303 ± 1.5e-05 kPa
397.17 K | 0.000315 ± 1.6e-05 kPa
401.14 K | 0.00041 ± 2.1e-05 kPa and 0.000429 ± 2.1e-05 kPa and 0.000427 ± 2.1e-05 kPa
405.18 K | 0.000546 ± 2.7e-05 kPa and 0.000585 ± 2.9e-05 kPa and 0.000588 ± 2.9e-05 kPa
409.08 K | 0.000767 ± 3.8e-05 kPa and 0.000773 ± 3.9e-05 kPa and 0.00079 ± 4e-05 kPa
413.17 K | 0.001087 ± 0.00011 kPa and 0.001156 ± 0.00012 kPa

Conditions | Normal melting temperature [°C]
[3], Crystal | 73.2 ± 0.4

c1ccc(-c2ccc(-c3ccc4ccccc4c3)cc2)cc1 [2-(biphen-4-yl)naphthalene]
Conditions | Molar enthalpy of transition or fusion [kcal/mol]
[2] | 6 ± 0.134

[3], Crystal
Conditions | vapor or sublimation pressure
405.17 K | 6.2e-05 ± 3e-06 kPa and 6.3e-05 ± 3e-06 kPa
409.14 K | 9.1e-05 ± 5e-06 kPa and 8.8e-05 ± 4e-06 kPa and 8.9e-05 ± 4e-06 kPa
411.18 K | 0.000111 ± 6e-06 kPa and 0.000112 ± 6e-06 kPa
413.18 K | 0.000131 ± 7e-06 kPa and 0.000135 ± 7e-06 kPa and 0.000134 ± 7e-06 kPa
415.14 K | 0.000164 ± 8e-06 kPa and 0.00016 ± 8e-06 kPa and 0.000161 ± 8e-06 kPa
417.19 K | 0.000197 ± 1e-05 kPa
419.09 K | 0.000237 ± 1.2e-05 kPa and 0.000235 ± 1.2e-05 kPa and 0.00023 ± 1.2e-05 kPa
421.14 K | 0.000283 ± 1.4e-05 kPa and 0.00028 ± 1.4e-05 kPa
423.09 K | 0.000339 ± 1.7e-05 kPa and 0.000342 ± 1.7e-05 kPa and 0.000336 ± 1.7e-05 kPa
425.19 K | 0.000418 ± 2.1e-05 kPa and 0.000424 ± 2.1e-05 kPa and 0.000416 ± 2.1e-05 kPa
429.21 K | 0.000609 ± 3e-05 kPa and 0.000597 ± 3e-05 kPa
433.15 K | 0.000855 ± 4.3e-05 kPa and 0.000839 ± 4.2e-05 kPa
437.19 K | 0.001171 ± 0.00012 kPa and 0.001222 ± 0.00013 kPa and 0.001194 ± 0.00012 kPa

Conditions | Normal melting temperature [°C]
[3], Crystal | 216.4 ± 1.1

c1ccc(-c2ccc3ccccc3c2)cc1 [2-phenylnaphthalene]
Conditions | Molar enthalpy of transition or fusion [kcal/mol]
[2] | 4.28 ± 0.11

[3], Crystal
Conditions | vapor or sublimation pressure
333.11 K | 0.000132 ± 7e-06 kPa and 0.000137 ± 7e-06 kPa
335.63 K | 0.000185 ± 9e-06 kPa and 0.000183 ± 9e-06 kPa and 0.00018 ± 9e-06 kPa
338.2 K | 0.000244 ± 1.2e-05 kPa and 0.000239 ± 1.2e-05 kPa
340.61 K | 0.00032 ± 1.6e-05 kPa and 0.000316 ± 1.6e-05 kPa and 0.000318 ± 1.6e-05 kPa
343.13 K | 0.00042 ± 2.1e-05 kPa and 0.000421 ± 2.1e-05 kPa and 0.000419 ± 2.1e-05 kPa
345.69 K | 0.000558 ± 2.8e-05 kPa and 0.000553 ± 2.8e-05 kPa and 0.000544 ± 2.7e-05 kPa
348.12 K | 0.000729 ± 3.7e-05 kPa and 0.000707 ± 3.5e-05 kPa and 0.000716 ± 3.6e-05 kPa
350.62 K | 0.000939 ± 4.7e-05 kPa and 0.000941 ± 4.7e-05 kPa and 0.000909 ± 4.6e-05 kPa
353.19 K | 0.001212 ± 0.00013 kPa and 0.001224 ± 0.00013 kPa and 0.001185 ± 0.00012 kPa

Conditions | Normal melting temperature [°C]
[3], Crystal | 100.4 ± 0.5
